Results as given in patent US11732029B2, “Methods and compositions for the treatment of wounds” (The University of Chicago, priority 2017, dated 2023).
Where two headings read alike, the source gives them in different places.

Key:
[1] = Ishihara et al. 2018; Martino et al. 2013; cited from earlier work
[2] = Heparin binding to synthesized laminin peptides (ELISA); set-up: key to Interaction with Heparin: ++ indicates high affinities; + indicates medium/low affinities
Description: (§1) ELISA tests were performed as described above. In brief, ELISA plates were coated with 1 μg/mL of laminin alpha 3 LG domain recombinant protein, laminin alpha 4 LG domain recombinant protein (R&D systems), laminin alpha 5 LG domain recombinant protein (LD BioPharma), or laminin peptide (sequences are described in Table 1, chemically synthesized by Genscript) in PBS for 2 hrs at 37° C. 1 μg/mL of BSA served as non-binding protein control. After blocking with 2% BSA PBS-0.05% Tween 20 (PBS-T) solution, 1 μg/mL of the recombinant human proteins (VEGF-A121, VEGF-A165, PlGF-1, PlGF-2, PDGF-BB or FGF-2) or 10 μg/mL of biotinylated heparin (Sigma-Aldrich) were added. Bound GF was detected with biotinylated antibodies for human VEGF, PlGF, PDGF-BB, or FGF-2 (R&D Systems). The antibodies were detected by streptavidin-HRP (R&D Systems).

human lung fibroblasts = assay: Cell adhesion assay, fibroblasts on laminin peptide coated plates; format: cell-based; set-up: key to Cell adhesion Fibroblasts: ++ indicates high affinities; + indicates medium/low affinities
Description: (§2) 96-well plates (non-tissue culture treated, Greiner Bio-one) were pre-coated with 1 μg/mL with laminin HBD peptides in PBS for 2 hrs at 37° C., followed by blocking with 2% BSA PBS for 1 h at RT. Cell adhesion assays were performed using human lung fibroblasts (Lonza) in FGM-2 medium (Lonza) or human umbilical vein endothelial cells (HUVEC; Lonza) in EGM-2 medium (Lonza) supplemented with 1% fetal bovine serum (FBS) and […] VEGF-A165, with or without 5 mM EDTA (Sigma-Aldrich). Cells were plated at 3000 cells/well on laminin peptide pre-coated plates and incubated for 30 min at 37° C., 5% CO2. Then, the medium was removed, and wells were quickly washed three times with PBS. Cell numbers were quantified using a CyQUANT assay, according to the manufacturer's instructions (Invitrogen). All cell lines were checked for mycoplasma contamination and used in passages from 5 to 8.

[3] = system: syndecan-1, syndecan-2, syndecan-3, syndecan-4; assay: Recombinant syndecan binding to synthesized laminin HBD peptides (ELISA); set-up: species or system human; key to Interaction with Syndecans: ++ indicates high affinities; + indicates medium/low affinities
Description: ELISA tests were performed as described above. In brief, ELISA plates were coated with 1 μg/mL laminin peptide (sequences are described in Table 1, chemically synthesized by Genscript) in PBS for 2 hrs at 37° C. 1 μg/mL of BSA served as non-binding protein control. After blocking with 2% BSA PBS-T solution, 1 μg/mL of the recombinant human syndecan-1, syndecan-2, syndecan-3, syndecan-4 (all syndecan proteins are histidine-tagged; SinoBiological) were added. Bound GF was detected with anti-histidine tag antibody (1:1000 dilution, BioLegend).

HUVEC = assay: Cell adhesion assay, HUVEC on laminin peptide coated plates; format: cell-based, human; set-up: key to Cell adhesion HUVECs: ++ indicates high affinities; + indicates medium/low affinities
Description: as §2

VEGF-A165 = molecular target: T1, VEGF-A165 (Homo sapiens, UniProt P15692); assay: GF binding to recombinant laminin LG domain protein and synthesized laminin HBD peptides (ELISA); conditions: plate coated with LG domain protein or peptide, 1 μg/mL GF, vs BSA-coated wells
T1 construct: All growth factors (GFs) and chemokines were purchased in their mature forms; purchased PeproTech; host or cells: Escherichia coli
T1 sequence (P15692 27-191 isoform P15692-4 limits assumed): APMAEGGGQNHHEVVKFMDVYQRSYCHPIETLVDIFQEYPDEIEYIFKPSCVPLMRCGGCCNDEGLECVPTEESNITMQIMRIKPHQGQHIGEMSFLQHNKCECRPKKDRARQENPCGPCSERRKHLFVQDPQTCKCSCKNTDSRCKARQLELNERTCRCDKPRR
Description: as §1

PDGF-BB = molecular target: T2, PDGF-BB (Homo sapiens, UniProt P01127); assay: as above; conditions: plate coated with LG domain protein or peptide, 1 μg/mL GF, vs BSA-coated wells
T2 construct: All growth factors (GFs) and chemokines were purchased in their mature forms; purchased PeproTech; host or cells: Escherichia coli
Description: as §1

HUVEC cells = assay: Migration assay (transwell); format: cell-based, human; conditions: 6 hr, 30 ng/mL VEGF-A165 with or without 0.1 μM peptide
Description: A migration assay was performed as described previously^3. A QCM 24-Well Colorimetric Cell Migration Assay kit was used to perform migration assay. Both sides of inserts were coated with 0.1 μM of bovine collagen I (C4243, Sigma-Aldrich) for 1 hr at 37° C. Then, the inserts were washed with water, dried in a laminar flow cabinet and disposed on 24-well cell culture plate covers. Solutions containing 30 ng/mL of VEGF-A165 preincubated with or without 0.1 μM of α33043-3067 peptide in medium (MCDB-131, 0.05% BSA) were added to the bottom side of the transwell (500 μL/well). Directly thereafter, HUVEC cells in medium containing 0.05% BSA (300 μL/transwell, 4×10^4 cells/transwell) were added to the transwell upper parts. After 6 hr, migrated cells were stained and absorbance at 560 nm was measured according to the manufacturer's instructions.

FGF-2 = FGF-2 (Homo sapiens, UniProt P09038); assay: GF binding to recombinant laminin LG domain protein and synthesized laminin HBD peptides (ELISA); set-up: All growth factors (GFs) and chemokines were purchased in their mature forms; purchased PeproTech; host or cells: Escherichia coli; conditions: plate coated with LG domain protein or peptide, 1 μg/mL GF, vs BSA-coated wells
Description: as §1

PlGF-2 = molecular target: T3, PlGF-2 (Homo sapiens, UniProt P49763); assay: as above; set-up: All growth factors (GFs) and chemokines were purchased in their mature forms; purchased PeproTech; host or cells: Escherichia coli; conditions: plate coated with LG domain protein or peptide, 1 μg/mL GF, vs BSA-coated wells
T3 sequence (P49763 19-170 isoform P49763-3 limits assumed): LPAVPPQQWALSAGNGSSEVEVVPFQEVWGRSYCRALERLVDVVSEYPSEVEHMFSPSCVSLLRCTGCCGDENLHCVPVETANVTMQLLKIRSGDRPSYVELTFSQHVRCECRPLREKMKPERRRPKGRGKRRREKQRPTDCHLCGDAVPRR
Description: as §1

GFs = assay: GF binding to synthesized laminin peptides (ELISA), all tested GFs together; set-up: species or system human; key to Interaction with GFs: ++ indicates high affinities; + indicates medium/low affinities; conditions: summary Table 2
Description: as §1

[4] = system: wound healing in the db/db mouse; conditions: cited from earlier work
[5] = peptide-coated plates, 30 min at 37° C., without EDTA

FGF-2, sequence (P09038 143-288): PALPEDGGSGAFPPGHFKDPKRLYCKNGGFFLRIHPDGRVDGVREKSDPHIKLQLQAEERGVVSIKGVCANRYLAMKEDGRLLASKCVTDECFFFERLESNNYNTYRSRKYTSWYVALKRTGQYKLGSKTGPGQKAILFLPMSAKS

In the case of “GCGGSLRPAPPPISGGGYRARPAKAAATQKKVERKAPDA [FgHBD]”, the binding to heparin [1] is given as “bind to heparin”.

In the case of “RLVFALGTDGKKLRIKSKEKCNDGK [α33043-3067, laminin α3 chain LG4-derived peptide, 25 aa]”, the binding to heparin ([2]; ELISA, peptide-coated plate, 10 μg/mL biotinylated heparin) is reported as “bound to heparin”, the “Interaction with Heparin” value ([2]; summary Table 2) is reported as “++” and the fibroblast attachment (human lung fibroblasts; [5]) is reported as “enhancement of fibroblast attachment”. The “Cell adhesion Fibroblasts” value (human lung fibroblasts; summary Table 2) was “++”, the “binding to recombinant syndecans (syndecan 1-4)” value ([3]; ELISA, peptide-coated plate, 1 μg/mL syndecan) was “significant binding” and the “Interaction with Syndecans” value ([3]; summary Table 2) was “++”. The “HUVEC attachment in the presence of EDTA” value (HUVEC; peptide-coated plates, 30 min, 5 mM EDTA) was “even in the presence of EDTA”, the HUVEC attachment (HUVEC; [5]) was “promoted HUVEC attachment” and the “Cell adhesion HUVECs” value (HUVEC; summary Table 2) was “++”. For the same molecule, the “binding to VEGF-A165” value (VEGF-A165) was “bound”, the “binding to PDGF-BB” value (PDGF-BB) was “bound” and the “degree of migration of HUVEC cells” value (HUVEC cells) was “did not increase the degree of cell migration”. The “binding to FGF-2” value (FGF-2) was “bound”, the “binding to PlGF-2” value (PlGF-2) was “bound” and the “Interaction with GFs” value (GFs) was “++”.

B1: PDGF-BB: platelet-derived growth factor-BB; Regranex in the clinic (protein)
chain: SLGSLTIAEPAMIAECKTRTEVFEISRRLIDRTNANFLVWPPCVEVQRCSGCCNNRNVQCRPTQVQLRPVQVRKIEIVRKKPIFKKATVTLEDHLACKCETVAAARPVT
For B1, the “wound healing in the db/db mouse” value ([4]; 10 μg per wound) is listed as “did not significantly enhance wound healing”.

B2: VEGF-A165: vascular endothelial growth factor-A165, recombinant (PeproTech) (protein)
chain: T1 sequence (P15692 27-191 isoform P15692-4 limits assumed)
For B2, the “wound healing in the db/db mouse” value ([4]; 20 μg per wound applied topically for five consecutive days) is given as “promote wound healing” and the “degree of migration of HUVEC cells” value (HUVEC cells) is given as “increases the degree of migration”.

B3: LamLG4: laminin α-chain LG4 domain used as growth factor-binding domain (protein)
chain: SLNKPPFLMLLKGSTRFNKTKTFRINQLLQDTPVASPRSVKVWQDACSPLPKTQANHGALQFGDIPTSHLLFKLPQELLKPRSQFAVDMQTTSSRGLVFHTGTKNSFMALYLSKGRLVFALGTDGKKLRIKSKEKCNDGKWHTVVFGHDGEKGRLVVDGLRAREGSLPGNSTISIRAPVYLGSPPSGKPKSLPTNSFVGCLKNFQLDSKPLYTPSSSFGVSSCTG
For B3, the binding to heparin [1] is given as “bind to heparin”.
